Source: patent US5763599A, “Nucleoside derivatives with photolabile protective groups” (Pfleiderer; Wolfgang, priority 1994, dated 1998)

Test: Irradiation experiments: photolytic cleavage of the 5' protective group with polychromatic light, followed by HPLC
Format: physicochemical
Settings: for Concentration Thymidine (released): from 0.2 mM CNPEOC-T; for Relative Quantity Thymidine (released): of 0.2 mM; for Concentration CNPEOC-T: start 0.2 mM; for Relative Quantity CNPEOC-T: 200 µM; for Photolytic cleavage of the 5' protective group in relation to rapidity and high yields: compared with V1 and V2
Method: The corresponding protected thymidine nucleosides were irradiated by means of an irradiation apparatus which was composed of a Hg very high pressure lamp (OSRAM HBO, 200 W), a focusing lens, a shutter with an electronic control device for setting the shutter times and a temperature-controlled cuvette holder. A heat filter (0.032 molar CuSO4 solution) between the lamp and sample was also installed. 0.2 mM solutions of the nucleosides in MeOH/H2 O 1:1 were irradiated at 20° to 30° C. with the entire lamp spectrum (polychromatic light with wavelengths of λ>289 nm).
The cleavage of the protective groups was followed quantitatively by HPLC. The HPLC unit comprised of the following devices: Merck-Hitachi L-6200 Intelligent Pump, Merck-Hitachi Intelligent Auto Sampler AS 4000, Merck-Hitachi Interface, Merck Lichrosorb column RP 18, 125×5 mm. The ultra-violet/VIS spectrophotometer was a Kontron UVIKON 730 LC. Detection took place at 260 nm. The integration of the chromatogram signals took place by means of Merck software: D-6000 HPLC Manager.
MeOH/H2 O mixtures were always used for chromatography. The following gradient was used (flow: 1 ml/min)
Calibration curves for thymidine and the protected nucleosides were compiled by injecting dilution series into the chromatograph.
Samples (loop volume: 20 μl) were taken from the irradiated solutions after specific time intervals. Each sample was injected twice into the chromatograph. The mean values of these dual determinations were used for further evaluation. The peak areas of the chromatograms were converted into the concentrations of protected nucleosides or of thymidine by means of the above-compiled calibration curves. The concentration values obtained in this manner were divided by the maximum achievable concentration of 0.2 mM (=concentration of the protected nucleosides at the start of irradiation) and plotted against the irradiation time as a "relative quantity" in percent.
Linear regression yielded: y=4.96777·10^-4 +3.85757 10^-7 ·x with x=peak area and y=thymidine concentration; r=0.9999
Linear regression yielded: y=9.2999·10^-4 +3.22516 10^-7 ·x with x=peak area and y=CNPEOC-T concentration; r=0.9998.
With regard to several other derivatives according to the invention and to the two comparative compounds V1 (5'-O-(2-nitrobenzyloxycarbonyl)thymidine) and V2 (5'-O-(2.4dinitrobenzyloxycarbonyl)thymidine), the following table summarizes their results obtained according to the above method and evaluated in relation to half-life and yield percentage of deprotected nucleoside derivative, in relation to the maximum concentration achievable): […]

[1] = 0.2 mM in MeOH/H2O 1:1, 20° to 30° C., λ>289 nm

Cc1cn([C@H]2C[C@H](O)[C@@H](COC(=O)OCCc3ccccc3[N+](=O)[O-])O2)c(=O)[nH]c1=O [Compound 1, 5'-O-(2-(2-nitrophenyl)ethoxycarbonyl)thymidine]
Yield of deprotected nucleoside, in relation to maximum concentration achievable [1]: 79 % Cmax | t0.5 (half-life of photolytic deprotection) (meoh/h2o 1:1, 200 µM): 2.6 min

Cc1cn([C@H]2C[C@H](O)[C@@H](COC(=O)OCCc3c([N+](=O)[O-])cccc3[N+](=O)[O-])O2)c(=O)[nH]c1=O [Compound 2, 5'-O-(2-(2,6-dinitrophenyl)ethoxycarbonyl)thymidine]
Yield of deprotected nucleoside, in relation to maximum concentration achievable [1]: 92 % Cmax | t0.5 (half-life of photolytic deprotection) [1]: 1.37 min

Cc1cn([C@H]2C[C@H](O)[C@@H](COC(=O)OCCc3c(Cl)cccc3[N+](=O)[O-])O2)c(=O)[nH]c1=O [Compound 4, 5'-O-(2-(2-chloro-6-nitrophenyl)ethoxycarbonyl)thymidine]
Yield of deprotected nucleoside, in relation to maximum concentration achievable [1]: 86 % Cmax | Concentration Thymidine (released) (irradiation time 1 min): 32.7 µM | Relative Quantity Thymidine (released) (irradiation time 1 min): 16.3% | Concentration CNPEOC-T (irradiation time 1 min): 148.9 µM | Concentration Thymidine (released) (irradiation time 2 min): 85.8 µM | Relative Quantity Thymidine (released) (irradiation time 2 min): 42.9% | Concentration CNPEOC-T (irradiation time 2 min): 82.6 µM | Concentration Thymidine (released) (irradiation time 3 min): 88.8 µM | Relative Quantity Thymidine (released) (irradiation time 3 min): 44.4% | Concentration CNPEOC-T (irradiation time 3 min): 81.9 µM | Concentration Thymidine (released) (irradiation time 5 min): 127.8 µM | Relative Quantity Thymidine (released) (irradiation time 5 min): 63.9% | Concentration CNPEOC-T (irradiation time 5 min): 28.1 µM | Concentration Thymidine (released) (irradiation time 15 min): 167.3 µM | Relative Quantity Thymidine (released) (irradiation time 15 min): 83.7% | Concentration CNPEOC-T (irradiation time 15 min): 8.8 µM | Concentration Thymidine (released) (irradiation time 30 min): 169.3 µM | Relative Quantity Thymidine (released) (irradiation time 30 min): 84.6% | Concentration CNPEOC-T (irradiation time 30 min): 0 µM | Concentration Thymidine (released) (irradiation time 60 min): 171.1 µM | Relative Quantity Thymidine (released) (irradiation time 60 min): 85.5% | Concentration CNPEOC-T (irradiation time 60 min): 0 µM | Concentration Thymidine (released) (irradiation time 120 min): 157.7 µM | Relative Quantity Thymidine (released) (irradiation time 120 min): 78.9% | Concentration CNPEOC-T (irradiation time 120 min): 0 µM | t0.5 (half-life of photolytic deprotection) (meoh/h2o 1:1, 200 µM): 1.71 min | Relative Quantity CNPEOC-T (meoh/h2o 1:1, 1 min): 74.5% | Relative Quantity CNPEOC-T (meoh/h2o 1:1, 2 min): 41.3% | Relative Quantity CNPEOC-T (meoh/h2o 1:1, 0.05 h): 40.9% | Relative Quantity CNPEOC-T (meoh/h2o 1:1, 5 min): 14.0% | Relative Quantity CNPEOC-T (meoh/h2o 1:1, 0.25 h): 4.4% | Relative Quantity CNPEOC-T (meoh/h2o 1:1, 0.5 h): 0% | Relative Quantity CNPEOC-T (meoh/h2o 1:1, 1 h): 0% | Relative Quantity CNPEOC-T (meoh/h2o 1:1, 2 h): 0%

Cc1cn([C@H]2C[C@H](O)[C@@H](COC(=O)OCCc3c(Br)cccc3[N+](=O)[O-])O2)c(=O)[nH]c1=O [Compound 5, 5'-O-(2-(2-bromo-6-nitrophenyl)ethoxycarbonyl)thymidine]
Yield of deprotected nucleoside, in relation to maximum concentration achievable [1]: 89 % Cmax | t0.5 (half-life of photolytic deprotection) (meoh/h2o 1:1, 200 µM): 1.71 min

Cc1cn([C@H]2C[C@H](O)[C@@H](COC(=O)OCCc3ccc(Cl)cc3[N+](=O)[O-])O2)c(=O)[nH]c1=O [Compound 6, 5'-O-(2-(4-chloro-2-nitrophenyl)ethoxycarbonyl)thymidine]
Yield of deprotected nucleoside, in relation to maximum concentration achievable [1]: 70 % Cmax | t0.5 (half-life of photolytic deprotection) (meoh/h2o 1:1, 200 µM): 2.3 min

Cc1cn([C@H]2C[C@H](O)[C@@H](COC(=O)OCCc3c(Cl)cc(Cl)cc3[N+](=O)[O-])O2)c(=O)[nH]c1=O [Compound 8, 5'-O-(2-(2,4-dichloro-6-nitrophenyl)ethoxycarbonyl)thymidine]
Yield of deprotected nucleoside, in relation to maximum concentration achievable [1]: 77 % Cmax | t0.5 (half-life of photolytic deprotection) (meoh/h2o 1:1, 200 µM): 1.68 min

COc1cc(CCOC(=O)OC[C@H]2O[C@@H](n3cc(C)c(=O)[nH]c3=O)C[C@@H]2O)c([N+](=O)[O-])cc1OC [Compound 9, 5'-O-(2-(4,5-dimethoxy-2-nitrophenyl)ethoxycarbonyl)thymidine]
Yield of deprotected nucleoside, in relation to maximum concentration achievable [1]: 77 % Cmax | t0.5 (half-life of photolytic deprotection) (meoh/h2o 1:1, 200 µM): 7.2 min

Cc1cn([C@H]2C[C@H](O)[C@@H](COC(=O)OCC(C)c3ccccc3[N+](=O)[O-])O2)c(=O)[nH]c1=O (some centres unmarked) [Compound 10, 5'-O-(2-(2-nitrophenyl)propoxycarbonyl)thymidine]
Yield of deprotected nucleoside, in relation to maximum concentration achievable [1]: 89 % Cmax | Photolytic cleavage of the 5' protective group in relation to rapidity and high yields: clearly superior | t0.5 (half-life of photolytic deprotection) (meoh/h2o 1:1, 200 µM): 0.7 min

Cc1cn([C@H]2C[C@H](O)[C@@H](COC(=O)OCC(Cl)c3ccccc3[N+](=O)[O-])O2)c(=O)[nH]c1=O (some centres unmarked) [Compound 11, 5'-O-(2-chloro-2-(2-nitrophenyl)ethoxycarbonyl)thymidine]
Yield of deprotected nucleoside, in relation to maximum concentration achievable [1]: 97 % Cmax | Photolytic cleavage of the 5' protective group in relation to rapidity and high yields: clearly superior | t0.5 (half-life of photolytic deprotection) (meoh/h2o 1:1, 200 µM): 1.46 min

Cc1cn([C@H]2C[C@H](O)[C@@H](COC(=O)OCc3ccccc3[N+](=O)[O-])O2)c(=O)[nH]c1=O [Compound V1, 5'-O-(2-nitrobenzyloxycarbonyl)thymidine, reference compound]
Yield of deprotected nucleoside, in relation to maximum concentration achievable [1]: 55 % Cmax | t0.5 (half-life of photolytic deprotection) (meoh/h2o 1:1, 200 µM): 2.5 min

Cc1cn([C@H]2C[C@H](O)[C@@H](COC(=O)OCc3ccc([N+](=O)[O-])cc3[N+](=O)[O-])O2)c(=O)[nH]c1=O [Compound V2, 5'-O-(2.4dinitrobenzyloxycarbonyl)thymidine, reference compound]
Yield of deprotected nucleoside, in relation to maximum concentration achievable [1]: 38 % Cmax | t0.5 (half-life of photolytic deprotection) [1]: 3.3 min
